This is an account of results in patent publication US6610720B2, “Method for treating or preventing emesis” (Merck Frosst Canada & Co., priority 2000, dated 2003).

Entries after “also recorded” stand apart in the source; their conditions may differ. Like-named read-outs stand apart in the source and are kept apart here. Marks after values point to notes of the source that are not given here.

Data set [1] deals with ferrets. In words: Administration of alpha-2 adrenoceptor antagonists to ferrets (retching and vomiting). As to conditions: for Retches / Vomits / Latency responders only: mean±SEM; for Emesis following administration (in words): ferrets.
Description: The ferrets were housed in a humidity and temperature controlled environment with food (Marshall Premium ferret diet; Marshall Farms, North Rose, N.Y., U.S.A.) and water provided ad libitum. On the day of the experiment, ferrets were put into individual cages and left to habituate for at least 30 minutes. Fasting was not a pre-requisite of these experiments. Pre-treatment with a test compound or vehicle was performed using a subcutaneous, an intraperitoneal or an oral administration, 60 minutes prior to the emetic challenge. […] Drugs were freshly prepared on the day of the experiment. […] During that time, the number of retches (i.e. rhythmic contraction of the abdomen) and vomiting movements (i.e. oral expulsion or attempt to expel solid/liquid matter from the gastrointestinal tract) were recorded.
Data is expressed as mean±SEM.
In data set [2] the test system is ferrets. The experiment in a line: Behavioural effects observed following the administration of RS14203 in ferrets. It counts as in vivo, ferret (Mustela putorius furo). The settings on record: RS14203 1 mg/kg p.o. The text has this: (§1) Fasting was not a pre-requisite of these experiments.
A further data set has as its system humans. The settings on record: cited from earlier work.
Data set [3] deals with ferrets. As to conditions: for Incidence / Retches / Vomits / Latency responders only: 60 min prior; for Retches / Vomits: 2 h observation.
Description: The anti-emetic activity of alpha-2 adrenoceptor agonists is preferably measured using, for instance, an in vivo emesis assay in the ferret. A variety of emetic stimuli may be employed including, for example, treatment with type IV cyclic nucleotide phosphodiesterase (PDE4) inhibitors (see Robichaud et al, Neuropharmacology (1999) 38, 289-297).
as §1

The subject of data set [4] is ferrets. As to conditions: doses ranging from 62.5-250 μg/kg.
Description: Male adult ferrets (Mustela putorius furo; 1-2 kg, Marshall Farms, North Rose, N.Y., U.S.A.) were used and experiments were conducted according to procedures previously described (Robichaud et al, 1999, supra). The ferrets were housed in a humidity and temperature controlled environment with food (Marshall Premium ferret diet; Marshall Farms, North Rose, N.Y., U.S.A.) and water provided ad libitum. On the day of the experiment, ferrets were put into individual cages and left to habituate for at least 30 minutes. Fasting was not a pre-requisite of these experiments. Pre-treatment with a test compound or vehicle was performed using a subcutaneous, an intraperitoneal or an oral administration, 60 minutes prior to the emetic challenge. Emesis was induced by PDE4 inhibitors administered orally (dosing volume=1 ml/kg) at a dose known to cause emesis (Robichaud et al, 1999, supra). Drugs were freshly prepared on the day of the experiment. […] During that time, the number of retches (i.e. rhythmic contraction of the abdomen) and vomiting movements (i.e. oral expulsion or attempt to expel solid/liquid matter from the gastrointestinal tract) were recorded.
For a further data set, the system named is elderly patients. As to conditions: elderly patients undergoing intraocular surgery; cited from earlier work.
Another data set concerns dogs. The settings on record: i.m.; cited from earlier work.
The test system of the next data set is children (3-12 yr). As to conditions: cited from earlier work.
Setting [5] is: emetic agent CT-2450 30 mg/kg p.o., pre-treatment 250 μg/kg s.c.
Where [6] appears, read: emetic agent R-rolipram 3 mg/kg p.o., pre-treatment 250 μg/kg s.c.
[7] abbreviates: emetic agent R-rolipram 3 mg/kg p.o., pre-treatment 250 μg/kg s.c., mean ± SEM.
[8] abbreviates: emetic agent RS14203 1 mg/kg p.o., pre-treatment 62.5 μg/kg s.c., mean ± SEM.
The mark [9] stands for this setting: emetic agent RS14203 1 mg/kg p.o., pre-treatment 125 μg/kg s.c.
Where [10] appears, read: emetic agent RS14203 1 mg/kg p.o., pre-treatment 125 μg/kg s.c., mean ± SEM.
[11] abbreviates: emetic agent RS14203 1 mg/kg p.o., pre-treatment 250 μg/kg s.c.
Where [12] appears, read: emetic agent RS14203 1 mg/kg p.o., pre-treatment 250 μg/kg s.c., mean ± SEM.
Setting [13] is: pre-treatment 250 μg/kg s.c., listed as Clonidine.

As for `CS(=O)(=O)NCCN1C(=O)NC[C@]12CCN1CCc3c(oc4ccccc34)[C@@H]1C2` [MK-467], in the data set with ferrets [1] (1 mg/kg p.o.), the Incidence is given as 0/3, the Retches is listed as 0 n° episodes and the Vomits worked out at 0 n° episodes. Moreover, in the data set with ferrets [1] (3 mg/kg p.o.), the Incidence was 1/3, the Latency responders only was found to be 12 min, the Retches came out at 4 ± 4 n° episodes and the Vomits worked out at 0.3 ± 0.3 n° episodes. Further, in the data set with ferrets [1] (10 mg/kg po), the Incidence is 2/3, the Latency responders only amounted to 18.5 ± 2.5 min, the Retches was determined as 12 ± 6 n° episodes and the Vomits was 1.3 ± 0.9 n° episodes. Also, in the data set with ferrets [1], the “Emesis following administration (in words)” value was “Emesis was also recorded”.

Consider `CN1CC[C@]2(CCN3CCc4c(oc5ccccc45)[C@@H]3C2)N(C)C1=O.Cl` [MK-912], for which, in the data set with ferrets [1] (1 mg/kg p.o.), the Incidence is on record as 2/8, the Latency responders only turned out to be 13.0 ± 5.0 min, the Retches is 3.2 ± 2.3 n° episodes and the Vomits was determined as 0.4 ± 0.3 n° episodes. Moreover, the “Emesis following administration (in words)” value in the data set on ferrets [1] is “Emesis was also recorded”.

`O=[N+]([O-])c1cccc(-c2cc(Cc3ccncc3)cc3cccnc23)c1` [RS14203]: in the data set on ferrets [2], the “Behavioural effects produced in addition to emesis” value is “salivation, hyperventilation, gagging and clawing at the mouth”.

With `COC(=O)[C@@H]1[C@H]2C[C@H]3c4[nH]c5ccccc5c4CCN3C[C@@H]2CC[C@@H]1O` [Yohimbine, yohimbine], the “Adverse effects following parenteral administration” value in the data set with humans was “nausea and vomiting”. In the data set on ferrets [1] (3 mg/kg i.p.), the Incidence is listed as 3/3, the Latency responders only is on record as 7 ± 1 min, the Retches was found to be 18.7 ± 3.8 n° episodes and the Vomits was found to be 5.3 ± 1.8 n° episodes. For the same compound, in the data set on ferrets [1] (3 mg/kg p.o.), the Incidence is 3/4, the Latency responders only was determined as 30.3 ± 13.4 min, the Retches is 9.8 ± 6.2 n° episodes and the Vomits is reported as 3.2 ± 1.2 n° episodes. Besides, in the data set on ferrets [1] (3 mg/kg s.c.), the Incidence is given as 2/3, the Latency responders only worked out at 9.5 ± 2.5 min, the Retches stood at 29.7 ± 17.6 n° episodes and the Vomits came to 3.0 ± 1.7 n° episodes. Also, the “Emesis following administration (in words)” value in the data set on ferrets [1] was “induced retching and vomiting in all ferrets treated; also recorded: caused unexpected retching and vomiting”.

With `Clc1cccc(Cl)c1N=C1NCCN1` [clonidine], the “Effect on emesis induced by CT-2450” value in the data set on ferrets [3] (CT-2450 30 mg/kg p.o., pre-treatment 250 μg/kg, all animals treated) is “abolished emesis”. Also, the “Animals with complete protection against R-rolipram-induced emesis” value in the data set with ferrets [3] (R-rolipram 3 mg/kg p.o., pre-treatment 250 μg/kg) was “two out of three”. Further, the “Animals showing complete protection against RS14203-induced emesis” value in the data set with ferrets [3] (RS14203 1 mg/kg p.o., pre-treatment 250 μg/kg) was “five out of six”. Moreover, the “Effect on number of retches and vomits induced by RS14203” value in the data set on ferrets [3] (RS14203 1 mg/kg p.o., pre-treatment 62.5-250 μg/kg) is “dose-dependently decreased”. Moreover, the Incidence in the data set with ferrets [3] (setting [5]) is 0/5; in the data set with ferrets [3] (setting [6]), 1/3; in the data set with ferrets [3] (emetic agent RS14203 1 mg/kg p.o., pre-treatment 62.5 μg/kg s.c.) it was 2/3; in the data set with ferrets [3] (setting [9]), 1/3; with ferrets [3] (setting [11]) it was 1/6. In addition, the Retches was 0* n° episodes in the data set on ferrets [3] (setting [5]); 54.3 ± 54.3 n° episodes in the data set on ferrets [3] (setting [7]); 9.3 ± 7.9 n° episodes with ferrets [3] (setting [8]); 2 ± 2 n° episodes with ferrets [3] (setting [10]); 0.2 ± 0.2 n° episodes with ferrets [3] (setting [12]). The Vomits in the data set on ferrets [3] (setting [5]) was 0* n° episodes; in the data set with ferrets [3] (setting [7]) it was 5.7 ± 5.7 n° episodes; in the data set on ferrets [3] (setting [8]), 1.7 ± 1.2 n° episodes; with ferrets [3] (setting [10]), 1 ± 1 n° episodes; in the data set on ferrets [3] (setting [12]), 0.2 ± 0.2 n° episodes. Besides, the Latency responders only with ferrets [3] (setting [6]) amounted to 5 min; in the data set with ferrets [3] (setting [8]), 55.0 ± 49.0 min; with ferrets [3] (setting [9]) it was 72 min; in the data set with ferrets [3] (setting [11]), 111 min. Besides, the “Effect on RS14203-induced gagging or clawing at the mouth” value with ferrets [2] is “no effect”. The Clawing at mouth is on record as 2/3 in the data set on ferrets [2] (pre-treatment 62.5 μg/kg s.c.), 1/3 with ferrets [2] (pre-treatment 125 μg/kg s.c.) and 5/6 in the data set with ferrets [2] (pre-treatment 250 μg/kg s.c.). The Gagging is on record as 1/3 with ferrets [2] (pre-treatment 62.5 μg/kg s.c.), 1/3 with ferrets [2] (pre-treatment 125 μg/kg s.c.) and 5/6 with ferrets [2] (pre-treatment 250 μg/kg s.c.). The Hyperventilation in the data set on ferrets [2] (pre-treatment 62.5 μg/kg s.c.) is recorded as 2/3; with ferrets [2] (pre-treatment 125 μg/kg s.c.), 2/3; in the data set on ferrets [2] (pre-treatment 250 μg/kg s.c.), “one out of six”; in the data set with ferrets [2] (setting [13]), 1/6. In addition, the Salivation in the data set on ferrets [2] (pre-treatment 62.5 μg/kg s.c.) is 2/3; in the data set with ferrets [2] (pre-treatment 125 μg/kg s.c.), 1/3; in the data set with ferrets [2] (pre-treatment 250 μg/kg s.c.) it was “none of the animals”; in the data set on ferrets [2] (setting [13]) it was 0/6. Besides, the “Emesis triggered by the compound by itself” value with ferrets [4] is on record as “did not trigger emesis”. Also, in the data set on ferrets [4] (appeared dose-related), the “Sedation following the administration” value was “light sedation”. For the same compound, the Effect on emesis entry with elderly patients is reported as “no effect on emesis”. For the same compound, the Sedation result in the data set on elderly patients is reported as “induced sedation”. For the same compound, in the data set with dogs, the “Emetic ED50” value is 0.025 mg/kg. In addition, the “Incidence and frequency of vomiting following strabismus surgery” value with children (3-12 yr) is “lower the incidence and frequency of vomiting”.
